The source of these data is US12428406B2 (PMV Pharmaceuticals, Inc., priority 2019, dated 2025).

The target of the test is T1, p53 Y220C (Homo sapiens, UniProt P04637, Y220C).
T1 construct: The recombinant protein was a truncation mutant containing only amino acids 94-312 of p53; made in house; host or cells: E. coli
T1 sequence (P04637 94-312, change not shown): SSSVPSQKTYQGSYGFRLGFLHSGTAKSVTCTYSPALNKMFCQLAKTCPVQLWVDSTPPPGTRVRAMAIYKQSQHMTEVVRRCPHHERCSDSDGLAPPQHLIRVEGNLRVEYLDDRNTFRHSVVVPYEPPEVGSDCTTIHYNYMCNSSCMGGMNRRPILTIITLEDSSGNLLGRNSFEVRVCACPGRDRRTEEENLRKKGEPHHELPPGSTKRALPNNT
In words: In vitro DNA binding activity assay (HTRF / TR-FRET): stabilization of p53 Y220C and increase of its DNA binding activity. The class given is biochemical. The following applies: recombinant His-tagged p53 Y220C DNA binding domain (aa 94-312), biotin-labeled consensus DNA, incubated at 27° C. or 29° C. for 60 min. A digest of the protocol:
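Compounds from 4.5 mM DMSO stocks, 3-fold serial dilutions; room-temperature incubations of 15 and 20 min. SC150 = concentration raising DNA binding by 50% over no-compound control.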
In general terms: Time-resolved FRET reads energy transfer from a long-lived donor to a nearby acceptor.
For the compound `CN1CC[C@@H](Nc2cccc3c2cc(C#CCNC(=O)c2ccn(C)c2)n3CC(F)(F)F)[C@@H](F)C1` [Compound 953A, N-[3-(4-{[(3S,4R)-3-fluoro-1-methylpiperidin-4-yl]amino}-1-(2,2,2-trifluoroethyl)-1H-indol-2-yl)prop-2-yn-1-yl]-1-methyl-1H-pyrrole-3-carboxamide], the “SC150 (concentration of the compound required to increase the DNA binding activity by 50%)” value is given as “+ (+ = 0 μM ≤ SC150 < 0.05 μM)”. Then `CCn1ccc(C(=O)NCC#Cc2cc3c(N[C@@H]4CCN(C)C[C@@H]4F)cccc3n2CC(F)(F)F)c1` [Compound 954A, 1-ethyl-N-[3-(4-{[(3S,4R)-3-fluoro-1-methylpiperidin-4-yl]amino}-1-(2,2,2-trifluoroethyl)-1H-indol-2-yl)prop-2-yn-1-yl]-1H-pyrrole-3-carboxamide], with “+ (+ = 0 μM ≤ SC150 < 0.05 μM)”. Then `CN1CC[C@@H](Nc2cccc3c2cc(C#CCNC(=O)c2ccn(C(C)(C)C)c2)n3CC(F)(F)F)[C@@H](F)C1` [Compound 955A, 1-tert-butyl-N-[3-(4-{[(3S,4R)-3-fluoro-1-methylpiperidin-4-yl]amino}-1-(2,2,2-trifluoroethyl)-1H-indol-2-yl)prop-2-yn-1-yl]-1H-pyrrole-3-carboxamide], with “+ (+ = 0 μM ≤ SC150 < 0.05 μM)”; and `COC(=O)[C@H](CCC(N)=O)NC(=O)c1ccc(NCC#Cc2cc3c(N[C@@H]4CCN(C)C[C@@H]4F)cccc3n2CC(F)(F)F)c(OC)c1` [Compound 956A, methyl (2S)-4-carbamoyl-2-[(4-{[3-(4-{[(3S,4R)-3-fluoro-1-methylpiperidin-4-yl]amino}-1-(2,2,2-trifluoroethyl)-1H-indol-2-yl)prop-2-yn-1-yl]amino}-3-methoxyphenyl)formamido]butanoate], with “+ (+ = 0 μM ≤ SC150 < 0.05 μM)”. As to `COc1cc(C(=O)NC[C@@H](C)O)ccc1NCC#Cc1cc2c(N[C@@H]3CCN(C)C[C@@H]3F)cccc2n1CC(F)(F)F` [Compound 957A, 4-((3-(4-(((3S,4R)-3-fluoro-1-methylpiperidin-4-yl)amino)-1-(2,2,2-trifluoroethyl)-1H-indol-2-yl)prop-2-yn-1-yl)amino)-N—((R)-2-hydroxypropyl)-3-methoxybenzamide], the “SC150 (concentration of the compound required to increase the DNA binding activity by 50%)” value is given as “+ (+ = 0 μM ≤ SC150 < 0.05 μM)”. Consider `COCC(O)CNC(=O)c1ccc(NCC#Cc2cc3c(N[C@@H]4CCN(C)C[C@@H]4F)cccc3n2CC(F)(F)F)c(OC)c1` (stereo partly drawn) [Compound 960A], for which the “SC150 (concentration of the compound required to increase the DNA binding activity by 50%)” value is given as “+ (+ = 0 μM ≤ SC150 < 0.05 μM)”. As for `COc1cc(C(=O)NC[C@H](C)O)ccc1NCC#Cc1cc2c(N[C@@H]3CCN(C)C[C@@H]3F)cccc2n1CC(F)(F)F` [Compound 961A, 4-{[3-(4-{[(3S,4R)-3-fluoro-1-methylpiperidin-4-yl]amino}-1-(2,2,2-trifluoroethyl)-1H-indol-2-yl)prop-2-yn-1-yl]amino}-N-[(2S)-2-hydroxypropyl]-3-methoxybenzamide], the “SC150 (concentration of the compound required to increase the DNA binding activity by 50%)” value is reported as “+ (+ = 0 μM ≤ SC150 < 0.05 μM)”.

Consider `COc1cc(C(=O)NC[C@H](O)CO)ccc1NCC#Cc1cc2c(N[C@@H]3CCN(C)C[C@@H]3F)cccc2n1CC(F)(F)F` [Compound 964A, N-[(2S)-2,3-dihydroxypropyl]-4-{[3-(4-{[(3S,4R)-3-fluoro-1-methylpiperidin-4-yl]amino}-1-(2,2,2-trifluoroethyl)-1H-indol-2-yl)prop-2-yn-1-yl]amino}-3-methoxybenzamide], for which the “SC150 (concentration of the compound required to increase the DNA binding activity by 50%)” value is given as “+ (+ = 0 μM ≤ SC150 < 0.05 μM)”. With `COc1cc(C(=O)NC(CCO)CCO)ccc1NCC#Cc1cc2c(N[C@@H]3CCN(C)C[C@@H]3F)cccc2n1CC(F)(F)F` [Compound 965A, N-(1,5-dihydroxypentan-3-yl)-4-{[3-(4-{[(3S,4R)-3-fluoro-1-methylpiperidin-4-yl]amino}-1-(2,2,2-trifluoroethyl)-1H-indol-2-yl)prop-2-yn-1-yl]amino}-3-methoxybenzamide] the entry was “+ (+ = 0 μM ≤ SC150 < 0.05 μM)”. With `COc1cc(C(=O)NCC(COC(=O)C(C)C)OC(=O)C(C)C)ccc1NCC#Cc1cc2c(N[C@@H]3CCN(C)C[C@@H]3F)cccc2n1CC(F)(F)F` (stereo partly drawn) [Compound 967A, 1-[(4-{[3-(4-{[(3S,4R)-3-fluoro-1-methylpiperidin-4-yl]amino}-1-(2,2,2-trifluoroethyl)-1H-indol-2-yl)prop-2-yn-1-yl]amino}-3-methoxyphenyl)formamido]-3-[(2-methylpropanoyl)oxy]propan-2-yl 2-methylpropanoate] the entry was “+ (+ = 0 μM ≤ SC150 < 0.05 μM)”. Then `COc1cc(C(=O)NCC2COC(=O)O2)ccc1NCC#Cc1cc2c(N[C@@H]3CCN(C)C[C@@H]3F)cccc2n1CC(F)(F)F` (stereo partly drawn) [Compound 968A, 4-{1[3-(4-{1[(3S,4R)-3-fluoro-1-methylpiperidin-4-yl]amino}-1-(2,2,2-trifluoroethyl)-1H-indol-2-yl)prop-2-yn-1-yl]amino}-3-methoxy-N-[(2-oxo-1,3-dioxolan-4-yl)methyl]benzamide], with “+ (+ = 0 μM ≤ SC150 < 0.05 μM)”; and `COc1cc(C(=O)NCCS(C)(=O)=O)ccc1NCC#Cc1cc2c(N[C@@H]3CCN(C)C[C@@H]3F)cccc2n1CC(F)(F)F` [Compound 969A, 4-{[3-(4-{[(3S,4R)-3-fluoro-1-methylpiperidin-4-yl]amino}-1-(2,2,2-trifluoroethyl)-1H-indol-2-yl)prop-2-yn-1-yl]amino}-N-(2-methanesulfonylethyl)-3-methoxybenzamide], with “+ (+ = 0 μM ≤ SC150 < 0.05 μM)”; and `COc1cc(C(=O)NCC(COC(C)=O)OC(C)=O)ccc1NCC#Cc1cc2c(N[C@@H]3CCN(C)C[C@@H]3F)cccc2n1CC(F)(F)F` (stereo partly drawn) [Compound 970A, 1-(acetyloxy)-3-[(4-{[3-(4-{[(3S,4R)-3-fluoro-1-methylpiperidin-4-yl]amino}-1-(2,2,2-trifluoroethyl)-1H-indol-2-yl)prop-2-yn-1-yl]amino}-3-methoxyphenyl)formamido]propan-2-yl acetate], with “+ (+ = 0 μM ≤ SC150 < 0.05 μM)”. For the compound `CCC(=O)OCC(CNC(=O)c1ccc(NCC#Cc2cc3c(N[C@@H]4CCN(C)C[C@@H]4F)cccc3n2CC(F)(F)F)c(OC)c1)OC(=O)CC` (stereo partly drawn) [Compound 971A, 1-[(4-{[3-(4-{[(3S,4R)-3-fluoro-1-methylpiperidin-4-yl]amino}-1-(2,2,2-trifluoroethyl)-1H-indol-2-yl)prop-2-yn-1-yl]amino}-3-methoxyphenyl)formamido]-3-(propanoyloxy)propan-2-ylpropanoate], the “SC150 (concentration of the compound required to increase the DNA binding activity by 50%)” value is on record as “+ (+ = 0 μM ≤ SC150 < 0.05 μM)”.

Take `COc1cc(C(=O)NC(C)COC(=O)C(C)C)ccc1NCC#Cc1cc2c(N[C@@H]3CCN(C)C[C@@H]3F)cccc2n1CC(F)(F)F` (stereo partly drawn) [Compound 972A, 2-[(4-{[3-(4-{[(3S,4R)-3-fluoro-1-methylpiperidin-4-yl]amino}-1-(2,2,2-trifluoroethyl)-1H-indol-2-yl)prop-2-yn-1-yl]amino}-3-methoxyphenyl)formamido]propyl 2-methylpropanoate]: the “SC150 (concentration of the compound required to increase the DNA binding activity by 50%)” value was “+ (+ = 0 μM ≤ SC150 < 0.05 μM)”. Turning to `COc1cc(S(C)(=O)=O)ccc1NCC#Cc1cc2c(NC3CCCN(C)CC3)cccc2n1CC(F)(F)F` (stereo not drawn) [Compound 988A, 2-{3-[(4-methanesulfonyl-2-methoxyphenyl)amino]prop-1-yn-1-yl}-N-(1-methylazepan-4-yl)-1-(2,2,2-trifluoroethyl)-1H-indol-4-amine], the “SC150 (concentration of the compound required to increase the DNA binding activity by 50%)” value was “+ (+ = 0 μM ≤ SC150 < 0.05 μM)”. With `COCC(O)CN1CCCC(Nc2cccc3c2cc(C#CCNc2ccc(S(C)(=O)=O)cc2OC)n3CC(F)(F)F)CC1` (stereo not drawn) [Compound 989A, 1-{4-[(2-{3-[(4-methanesulfonyl-2-methoxyphenyl)amino]prop-1-yn-1-yl}-1-(2,2,2-trifluoroethyl)-1H-indol-4-yl)amino]azepan-1-yl}-3-methoxypropan-2-ol] the entry was “+ (+ = 0 μM ≤ SC150 < 0.05 μM)”; with `COc1cc(S(C)(=O)=O)ccc1NCC#Cc1cc2c(NC3CC4CCC(C3)N4C)cccc2n1CC(F)(F)F` (stereo not drawn) [Compound 990A, 2-{3-[(4-methanesulfonyl-2-methoxyphenyl)amino]prop-1-yn-1-yl}-N-{8-methyl-8-azabicyclo[3.2.1]octan-3-yl}-1-(2,2,2-trifluoroethyl)-1H-indol-4-amine], “+ (+ = 0 μM ≤ SC150 < 0.05 μM)”; with `CS(=O)(=O)c1ccc(NCC#Cc2cc3c(NC4CCOCC4)cccc3n2CC(F)(F)F)c(OC(F)(F)F)c1` [Compound 991A, 2-(3-{[4-methanesulfonyl-2-(trifluoromethoxy)phenyl]amino}prop-1-yn-1-yl)-N-(oxan-4-yl)-1-(2,2,2-trifluoroethyl)-1H-indol-4-amine], “+ (+ = 0 μM ≤ SC150 < 0.05 μM)”. Then `COc1cc(S(=O)(=O)Nc2ccon2)ccc1NCC#Cc1cc2c(NC3CCOCC3)cccc2n1CC(F)(F)F` [Compound 992A, 3-methoxy-4-[(3-{4-[(oxan-4-yl)amino]-1-(2,2,2-trifluoroethyl)-1H-indol-2-yl}prop-2-yn-1-yl)amino]-N-(1,2-oxazol-3-yl)benzene-1-sulfonamide], with “+ (+ = 0 μM ≤ SC150 < 0.05 μM)”. With `COc1cc(S(=O)(=O)NC2CCOCC2)ccc1NCC#Cc1cc2c(NC3CCOCC3)cccc2n1CC(F)(F)F` [Compound 993A, 3-methoxy-N-(oxan-4-yl)-4-[(3-{4-[(oxan-4-yl)amino]-1-(2,2,2-trifluoroethyl)-1H-indol-2-yl}prop-2-yn-1-yl)amino]benzene-1-sulfonamide] the entry was “+ (+ = 0 μM ≤ SC150 < 0.05 μM)”.
